# ChEMBL document CHEMBL3044877, “Synthesis and crystal structure of chalcones as well as on cytotoxicity and antibacterial properties” (Med Chem Res, 2012)
# What was measured:
# HT-29 = assay: Cytotoxicity against Homo sapiens (human) HT-29 cells after 72 hr by MTT assay; type: functional, cell-based
# SGC-7901 = assay: Cytotoxicity against Homo sapiens (human) SGC7901 cells after 72 hr by MTT assay; type: functional, cell-based
# Enterococcus faecium = assay: Antibacterial activity against multidrug-resistant Enterococcus faecium 609205; type: functional
# Enterococcus faecalis = assay: Antibacterial activity against multidrug-resistant Enterococcus faecalis 609230; type: functional
# [1] = system: Staphylococcus epidermidis; assay: Antibacterial activity against multidrug-resistant Staphylococcus epidermidis 619083; type: functional
# [2] = system: Staphylococcus epidermidis; assay: Antibacterial activity against multidrug-resistant Staphylococcus epidermidis 620206; type: functional
# Staphylococcus aureus [3] = assay: Antibacterial activity against multidrug-resistant Staphylococcus aureus 701219; type: functional
# Staphylococcus aureus [4] = assay: Antibacterial activity against multidrug-resistant Staphylococcus aureus 701230; type: functional
# Staphylococcus aureus [5] = assay: Antibacterial activity against multidrug-resistant Staphylococcus aureus ATCC 25923; type: functional
# Pseudomonas aeruginosa [6] = assay: Antibacterial activity against multidrug-resistant Pseudomonas aeruginosa 710218; type: functional
# Pseudomonas aeruginosa [7] = assay: Antibacterial activity against multidrug-resistant Pseudomonas aeruginosa 630266; type: functional
# Acinetobacter baumannii [8] = assay: Antibacterial activity against multidrug-resistant Acinetobacter baumannii B-8 303211; type: functional
# Acinetobacter baumannii [9] = assay: Antibacterial activity against multidrug-resistant Acinetobacter baumannii B-5 302234; type: functional
# Klebsiella pneumoniae [10] = assay: Antibacterial activity against multidrug-resistant Klebsiella pneumoniae 626238; type: functional
# Klebsiella pneumoniae [11] = assay: Antibacterial activity against multidrug-resistant Klebsiella pneumoniae 626511; type: functional
# Escherichia coli [12] = assay: Antibacterial activity against multidrug-resistant Escherichia coli 629247; type: functional
# Escherichia coli [13] = assay: Antibacterial activity against multidrug-resistant Escherichia coli 629119; type: functional
# Staphylococcus aureus [14] = assay: Antibacterial activity against Staphylococcus aureus after 24 hr; type: functional
# [15] = Homo sapiens, HT-29, 72 h, read-out: IC50
# [16] = Homo sapiens, SGC-7901, 72 h, read-out: IC50
smiles,measurement,setting,value
COc1ccc(C(=O)/C=C/c2ccccc2C(F)(F)F)cc1,IC50,HT-29; [15],36.4 µM
COc1ccc(C(=O)/C=C/c2ccc(Cl)cc2Cl)cc1,IC50,SGC-7901; [16],12.6 µM
same,IC50,HT-29; [15],18.9 µM
COc1ccc(C(=O)/C=C/c2ccc(F)cc2F)cc1,IC50,SGC-7901; [16],48.4 µM
same,IC50,HT-29; [15],11.1 µM
COc1ccc(/C=C/C(=O)c2ccccc2O)c(OC)c1,IC50,SGC-7901; sgc-7901,Not Active
same,IC50,HT-29; ht-29,Not Active
COc1ccc(/C=C/C(=O)c2ccccc2)c(OC)c1,IC50,HT-29; [15],131 µM
O=C(/C=C/c1ccccc1C(F)(F)F)c1ccccc1,IC50,SGC-7901; [16],40.3 µM
same,IC50,HT-29; [15],42.9 µM
COc1ccc(C(=O)/C=C/c2ccccc2Cl)cc1OC,IC50,SGC-7901; [16],24.7 µM
same,IC50,HT-29; [15],15.5 µM
COc1ccc(C(=O)/C=C/c2cccc(OC)c2OC)cc1,IC50,SGC-7901; [16],13.1 µM
same,IC50,HT-29; [15],41.7 µM
COc1ccc(C(=O)/C=C/c2ccccc2Br)cc1OC,IC50,SGC-7901; [16],21.4 µM
same,IC50,HT-29; [15],14 µM
COc1ccc(/C=C/C(=O)c2cc(F)cc(F)c2)c(OC)c1,IC50,SGC-7901; [16],55.5 µM
same,IC50,HT-29; ht-29,Not Active
COc1ccc(C(=O)/C=C/c2ccccc2OC)cc1,IC50,SGC-7901; sgc-7901,Not Active
COc1ccccc1/C=C/C(=O)c1cc(F)cc(F)c1,IC50,SGC-7901; [16],75.4 µM
same,IC50,HT-29; [15],53.2 µM
Nc1ccc(C(=O)/C=C/c2ccccc2C(F)(F)F)cc1,IC50,SGC-7901; [16],15.7 µM
COc1ccc(C(=O)/C=C/c2ccccc2Br)cc1,IC50,SGC-7901; [16],20 µM
same,IC50,HT-29; [15],25.7 µM
COc1ccc(C(=O)/C=C/c2ccc(Cl)cc2Cl)cc1OC,IC50,SGC-7901; [16],60.5 µM
same,IC50,HT-29; [15],18.7 µM
COc1ccc(C(=O)/C=C/c2cccc(OC)c2OC)cc1OC,IC50,SGC-7901; [16],70.7 µM
same,IC50,HT-29; [15],35.9 µM
Nc1ccc(C(=O)/C=C/c2ccc(Cl)cc2Cl)cc1,IC50,SGC-7901; [16],87.7 µM
same,IC50,HT-29; [15],40 µM
O=C(/C=C/c1ccc(Cl)cc1Cl)c1ccccc1O,IC50,HT-29; [15],42.4 µM
CN(C)c1ccc(/C=C/C(=O)c2cccc(N)c2)cc1,IC50,HT-29; ht-29,Not Active
CN(C)c1ccc(/C=C/C(=O)c2cc(F)cc(F)c2)cc1,IC50,SGC-7901; sgc-7901,Not Active
same,IC50,HT-29; ht-29,Not Active
Nc1ccc(C(=O)/C=C/c2ccccc2Cl)cc1,IC50,SGC-7901; [16],11.2 µM
same,IC50,HT-29; [15],26.2 µM
COc1ccc(/C=C/C(=O)c2ccc(N)cc2)c(Cl)c1,MIC,Enterococcus faecium,> 1000 µg/mL
same,MIC,Enterococcus faecalis,537 µg/mL
same,MIC,[1],> 1000 µg/mL
same,MIC,[2],> 1000 µg/mL
same,MIC,Staphylococcus aureus [3],> 1000 µg/mL
same,MIC,Staphylococcus aureus [4],537 µg/mL
same,MIC,Staphylococcus aureus [5],537 µg/mL
same,IC50,SGC-7901; [16],20.2 µM
same,IC50,HT-29; [15],55.7 µM
COc1ccc(/C=C/C(=O)c2cccc(N)c2)c(Cl)c1,IC50,SGC-7901; [16],53.8 µM
same,IC50,HT-29; [15],42.8 µM
COc1ccc(C(=O)/C=C/c2ccc(OC)cc2Cl)cc1,IC50,SGC-7901; [16],19.2 µM
same,IC50,HT-29; [15],49.1 µM
COc1ccc(/C=C/C(=O)c2ccccc2O)c(Cl)c1,IC50,SGC-7901; [16],62.1 µM
same,IC50,HT-29; [15],59.5 µM
COc1ccc(/C=C/C(=O)c2cc(F)cc(F)c2)cc1,IC50,SGC-7901; sgc-7901,Not Active
same,IC50,HT-29; [15],101 µM
Nc1ccc(C(=O)/C=C/c2ccccc2F)cc1,IC50,SGC-7901; [16],7.44 µM
same,IC50,HT-29; [15],47.8 µM
COc1ccc(C(=O)/C=C/c2ccc(N(C)C)cc2)cc1OC,IC50,SGC-7901; sgc-7901,Not Active
same,IC50,HT-29; [15],49.8 µM
COc1ccc(C(=O)/C=C/c2ccc(O)cc2)cc1,MIC,Pseudomonas aeruginosa [6],> 1000 µg/mL
same,MIC,Pseudomonas aeruginosa [7],> 1000 µg/mL
same,MIC,Acinetobacter baumannii [8],548 µg/mL
same,MIC,Acinetobacter baumannii [9],548 µg/mL
same,MIC,Klebsiella pneumoniae [10],> 1000 µg/mL
same,MIC,Klebsiella pneumoniae [11],> 1000 µg/mL
same,MIC,Escherichia coli [12],548 µg/mL
same,MIC,Escherichia coli [13],548 µg/mL
same,MIC,Enterococcus faecium,> 1000 µg/mL
same,MIC,Enterococcus faecalis,81 µg/mL
same,MIC,[1],20 µg/mL
same,MIC,[2],81 µg/mL
same,MIC,Staphylococcus aureus [3],81 µg/mL
same,MIC,Staphylococcus aureus [4],81 µg/mL
same,MIC,Staphylococcus aureus [5],40 µg/mL
same,IC50,SGC-7901; [16],14.7 µM
same,IC50,HT-29; [15],18.6 µM
COc1ccc(/C=C/C(=O)c2ccc(OC)c(OC)c2)cc1,IC50,SGC-7901; [16],102 µM
same,IC50,HT-29; [15],54.6 µM
COc1ccc(/C=C/C(=O)c2ccc(N)cc2)c(OC)c1,IC50,SGC-7901; sgc-7901,Not Active
same,IC50,HT-29; ht-29,Not Active
COc1ccc(/C=C/C(=O)c2ccc(OC)c(OC)c2)c(OC)c1,IC50,SGC-7901; sgc-7901,Not Active
same,IC50,HT-29; [15],65.5 µM
COc1ccc(C(=O)/C=C/c2ccccc2F)cc1,IC50,SGC-7901; [16],21.2 µM
same,IC50,HT-29; [15],18.9 µM
O=C(/C=C/c1ccc(O)cc1)c1ccccc1 [4-HYDROXYCHALCONE],MIC,Staphylococcus aureus [14],125 µg/mL
same,MIC,Pseudomonas aeruginosa [6],158 µg/mL
same,MIC,Pseudomonas aeruginosa [7],> 1000 µg/mL
same,MIC,Acinetobacter baumannii [8],158 µg/mL
same,MIC,Acinetobacter baumannii [9],158 µg/mL
same,MIC,Klebsiella pneumoniae [10],> 1000 µg/mL
same,MIC,Klebsiella pneumoniae [11],> 1000 µg/mL
same,MIC,Escherichia coli [12],158 µg/mL
same,MIC,Escherichia coli [13],158 µg/mL
same,MIC,Enterococcus faecium,315 µg/mL
same,MIC,Enterococcus faecalis,158 µg/mL
same,MIC,[1],158 µg/mL
same,MIC,[2],158 µg/mL
same,MIC,Staphylococcus aureus [3],158 µg/mL
same,MIC,Staphylococcus aureus [4],158 µg/mL
same,MIC,Staphylococcus aureus [5],158 µg/mL
same,IC50,SGC-7901; [16],13.7 µM
same,IC50,HT-29; [15],24.6 µM
O=c1[nH]cc(F)c(=O)[nH]1 [FLUOROURACIL],IC50,"SGC-7901; Homo sapiens, SGC-7901, 72 h",29.2 µM
same,IC50,HT-29; [15],9.72 µM
C[C@H]1COc2c(N3CCN(C)CC3)c(F)cc3c(=O)c(C(=O)O)cn1c23.C[C@H]1COc2c(N3CCN(C)CC3)c(F)cc3c(=O)c(C(=O)O)cn1c23.O [LEVOFLOXACIN],MIC,Pseudomonas aeruginosa [6],> 1000 µg/mL
same,MIC,Pseudomonas aeruginosa [7],325 µg/mL
same,MIC,Acinetobacter baumannii [8],12.5 µg/mL
same,MIC,Acinetobacter baumannii [9],> 1000 µg/mL
same,MIC,Klebsiella pneumoniae [10],> 1000 µg/mL
same,MIC,Klebsiella pneumoniae [11],125 µg/mL
same,MIC,Escherichia coli [12],25 µg/mL
same,MIC,Escherichia coli [13],> 1000 µg/mL
same,MIC,Enterococcus faecium,> 1000 µg/mL
same,MIC,Enterococcus faecalis,> 1000 µg/mL
same,MIC,[1],125 µg/mL
same,MIC,[2],> 1000 µg/mL
same,MIC,Staphylococcus aureus [3],100 µg/mL
same,MIC,Staphylococcus aureus [4],12.5 µg/mL
same,MIC,Staphylococcus aureus [5],12.5 µg/mL
